Source: US20040030131A1, “Pharmaceutical compounds” (priority 2000, published 2004)

| melting point [°C] | SMILES |
| --- | --- |
| 204.5 to 206.7 | CNCC1=C(c2ccc3scc(C)c3c2)C2CCC(C1)C2.Cl (stereo not shown) |
| 207.4 to 211.1 | CN(C)CC1=C(c2cc3cc(F)ccc3s2)C2CCC(C1)C2.Cl (racemic) |
| 239 to 242 | COc1cccc2sc(C3=C(CN(C)C)C4CCC3C4)cc12.Cl (racemic) |
| 57.8 | CN(C)CC1=C(c2ccc3sccc3c2)C2CCC(C1)C2.Cl (stereo not shown) |
| 179.5 to 181.6 | Cc1cc2cc(C3=C(CN(C)C)C4CCC3C4)ccc2s1.Cl (racemic) |
| 232 to 235 | COc1cccc2cc(C3=C(CN(C)C)C4CCC3C4)sc12.Cl (racemic) |
| 73.5 to 76.9 | CN(C)CC1=C(c2cccc3sccc23)C2CCC1C2 (racemic) [Example 15, (+/−)-((3-(Benzo[b]thiophen-4-yl)bicyclo[2.2.1]-hept-2-en-2-yl)methyl)dimethylamine] |
